From patent publication US7235379B2, “Method and medium for the detection/identification of microorgranisms with esterase activity” (Bio Merieux, priority 2000, dated 2007)
Structures can show the parent of a compound that is named as a salt. Where two headings read alike, the source gives them in different places.

What was measured:
[1] = system: Salmonella typhimurium 010; experiment: Ex.1 colony coloration, 5-bromo-3-indolyl nonanoate, DMSO/Tween 20, MacConkey; type: cell-based
Salmonella spp. 017 = system: Salmonella spp. 017
Description: The esterase substrate tested is 5-bromo-3-indolyl nonanoate. A 40 g/l stock solution of substrate is prepared in a mixture of 40% dimethyl sulfoxide and 60% Tween 20. A sufficient volume is added to a supercooled MacConkey medium (without neutral red) to give a substrate concentration of 500 mg/l.
Microorganisms originating from the Applicant's collection were inoculated onto this medium from a 0.5 McFarland suspension by isolation in three quadrants. The dishes were incubated at 37° C. for 48 hours. The colonies formed were examined visually after 24 and 48 hours of incubation. The coloration of these colonies and the intensity of this coloration were noted.
Note: In the above Examples, the numbers following the strains correspond to the number of each strain referenced in the Applicant's collection. The intensity of coloration corresponds to an arbitrary scale defined as follows: […]

[2] = system: Pseudomonas aeruginosa 165; experiment: Ex.3 colony coloration, 5-bromo-4-chloro-3-indolyl nonanoate 250 mg/l, DMSO/Tween 20; type: cell-based; also: key: 0: no activity; 0.1: trace of coloration; 0.5: very pale coloration; 1: distinct coloration of low intensity; 2: clear coloration of medium intensity; 3: intense coloration; 4: very intense coloration
Description: The esterase substrate tested is 5-bromo-4-chloro-3-indolyl nonanoate. A 40 g/l stock solution of substrate is prepared in a mixture of 40% dimethyl sulfoxide and 60% Tween 20. A sufficient volume is added to a supercooled MacConkey medium (without neutral red) to give a substrate concentration of 250 mg/l.

CCCCC(CC)CCC(CC(C)C)OS(=O)(=O)O (stereo not drawn) [Tergitol 4, 7-ethyl-2-methyl-4-undecanoate hydrogensulfate or its sodium salt]
color ([1]; 2 ml/l, 24 h): gray | intensity of coloration ([1]; 2 ml/l, 24 h): 2 | color ([1]; 2 ml/l, 48 h): gray | intensity of coloration ([1]; 2 ml/l, 48 h): 2.5 | color ([1]; 4 ml/l, 24 h): gray | intensity of coloration ([1]; 4 ml/l, 24 h): 3 | color ([1]; 4 ml/l, 48 h): gray | intensity of coloration ([1]; 4 ml/l, 48 h): 3 | color ([1]; 8 ml/l, 24 h): gray | intensity of coloration ([1]; 8 ml/l, 24 h): 3.5 | color ([1]; 8 ml/l, 48 h): gray | intensity of coloration ([1]; 8 ml/l, 48 h): 3.5 | color ([1]; 16 ml/l, 24 h): gray | intensity of coloration ([1]; 16 ml/l, 24 h): 3.5 | color ([1]; 16 ml/l, 48 h): gray | intensity of coloration ([1]; 16 ml/l, 48 h): 4 | color (Salmonella spp. 017; 2 ml/l, 24 h): gray | intensity of coloration (Salmonella spp. 017; 2 ml/l, 24 h): 1 | color (Salmonella spp. 017; 2 ml/l, 48 h): gray | intensity of coloration (Salmonella spp. 017; 2 ml/l, 48 h): 3 | color (Salmonella spp. 017; 4 ml/l, 24 h): gray | intensity of coloration (Salmonella spp. 017; 4 ml/l, 24 h): 1.5 | color (Salmonella spp. 017; 4 ml/l, 48 h): gray | intensity of coloration (Salmonella spp. 017; 4 ml/l, 48 h): 3.5 | color (Salmonella spp. 017; 8 ml/l, 24 h): gray | intensity of coloration (Salmonella spp. 017; 8 ml/l, 24 h): 2 | color (Salmonella spp. 017; 8 ml/l, 48 h): gray | intensity of coloration (Salmonella spp. 017; 8 ml/l, 48 h): 3 | color (Salmonella spp. 017; 16 ml/l, 24 h): gray | intensity of coloration (Salmonella spp. 017; 16 ml/l, 24 h): 1 | color (Salmonella spp. 017; 16 ml/l, 48 h): gray | intensity of coloration (Salmonella spp. 017; 16 ml/l, 48 h): 2 | intensity of coloration ([2]; 0.001 ml/l, 24 h): 0.1 | intensity of coloration ([2]; 0.001 ml/l, 48 h): 0.5 | intensity of coloration ([2]; 0.01 ml/l, 24 h): 0.5 | intensity of coloration ([2]; 0.01 ml/l, 48 h): 1 | intensity of coloration ([2]; 0.1 ml/l, 24 h): 0.1 | intensity of coloration ([2]; 0.1 ml/l, 48 h): 0.5 | intensity of coloration ([2]; 1 ml/l (1st col), 24 h): 0.5 | intensity of coloration ([2]; 1 ml/l (1st col), 48 h): 0.5 | intensity of coloration ([2]; 1 ml/l (2nd col), 24 h): 0.5 | intensity of coloration ([2]; 1 ml/l (2nd col), 48 h): 1
